Reference: ChEMBL document CHEMBL5108046, “Discovery of Novel Pyrazole-Based KDM5B Inhibitor TK-129 and Its Protective Effects on Myocardial Remodeling and Fibrosis” (J Med Chem, 2022)
pIC50: −log10 of the molar value. Active and inactive are the calls of the source. No cut-off for these calls is given here.

How the values were obtained:
[1] = Clearance in Sprague-Dawley rat at 10 mg/kg, po measured upto 24 hrs; format: ADME, organism-based; details: in vivo
Mus musculus [2] = assay: Anti-myocardial remodeling function in isoproterenol-induced C57BL/6 mouse model assessed as decrease in cardiac hypertrophy ANP protein at 50 mg/kg by one-time gavage for 21 days relative to control; format: functional; design: scale not given: the % may be the effect or the level left; details: time 21 day
[3] = Acute toxicity in C57BL/6 mouse assessed as effect on spleen at 2 g/Kg by hematoxylin and eosin staining based histopathological analysis; format: tissue-based; details: in vivo, 2000 mg/kg
[4] = test system: Fibroblast of cardiac tissue; assay: Antimigratory activity in neonatal rat cardiac fibroblasts assessed as fold decrease in Ang II-induced migration measured after 48 hrs by transwell test (reference value: 1.8 fold); format: functional
[5] = Acute toxicity in C57BL/6 mouse assessed as effect on liver at 2 g/Kg by hematoxylin and eosin staining based histopathological analysis; format: tissue-based; details: in vivo, 2000 mg/kg
Mus musculus [6] = assay: Anti-myocardial remodeling function in isoproterenol-induced C57BL/6 mouse model assessed as decrease in cardiac hypertrophy BNP protein at 20 mg/kg by one-time gavage for 21 days relative to control; format: functional; design: scale not given: the % may be the effect or the level left; details: time 21 day
[7] = Clearance in Sprague-Dawley rat at 2 mg/kg, iv measured upto 24 hrs; format: ADME, organism-based; details: in vivo
[8] = Acute toxicity in C57BL/6 mouse assessed as effect on lung at 2 g/Kg by hematoxylin and eosin staining based histopathological analysis; format: tissue-based; details: in vivo, 2000 mg/kg
[9] = target: T1, Lysine-specific demethylase 5B (Homo sapiens, UniProt Q9UGL1); assay: Inhibition of KDM5B (unknown origin) incubated for 30 mins by HRTF assay
[10] = AUC in Sprague-Dawley rat at 10 mg/kg, po measured upto 24 hrs; format: ADME, organism-based; design: dose 10 mg/kg, time < 24 hrs, route po; details: in vivo
[11] = Acute toxicity in C57BL/6 mouse assessed as effect on kidney at 2 g/Kg by hematoxylin and eosin staining based histopathological analysis; format: tissue-based; details: in vivo, 2000 mg/kg
Mus musculus [12] = assay: Anti-myocardial remodeling function in isoproterenol-induced C57BL/6 mouse model assessed as increase in ejection fraction at 20 mg/kg by one-time gavage for 21 days; format: functional; details: time 21 day
[13] = test system: Fibroblast of cardiac tissue; assay: Reversal of Ang II-induced proliferation in neonatal rat cardiac fibroblasts measured after 48 hrs by MTT assay; format: functional, cell-based
[14] = test system: Fibroblast of cardiac tissue; assay: Reversal of Ang II-induced increase in alpha-SMA level in neonatal rat cardiac fibroblasts by Western blot analysis; format: functional, cell-based
Mus musculus [15] = assay: Anti-myocardial remodeling function in isoproterenol-induced C57BL/6 mouse model assessed as decrease in heart weight to […] ratio at 50 mg/kg by one-time gavage for 21 days; format: functional; details: time 21 day
[16] = test system: Fibroblast of cardiac tissue; assay: Antimigratory activity in neonatal rat cardiac fibroblasts assessed as fold decrease in Ang II-induced migration measured after 48 hrs by scratch test; format: functional
Mus musculus [17] = assay: Anti-myocardial remodeling function in isoproterenol-induced C57BL/6 mouse model assessed as decrease in cardiac hypertrophy BNP protein at 50 mg/kg by one-time gavage for 21 days relative to control; format: functional; design: scale not given: the % may be the effect or the level left; details: time 21 day
[18] = target: Lysine-specific demethylase 5A (Homo sapiens, UniProt P29375); assay: Inhibition of KDM5A (unknown origin) incubated for 30 mins by HRTF assay
[19] = test system: Fibroblast of cardiac tissue; assay: Reversal of Ang II-induced increase in collagen I level in neonatal rat cardiac fibroblasts by Western blot analysis; format: functional, cell-based
[20] = Half life in Sprague-Dawley rat at 2 mg/kg, iv measured upto 24 hrs; format: ADME, organism-based; details: in vivo
[21] = Volume of distribution at steady state in Sprague-Dawley rat at 10 mg/kg, po measured upto 24 hrs; format: ADME, organism-based; details: in vivo
[22] = Acute toxicity in C57BL/6 mouse assessed as effect on heart at 2 g/Kg by hematoxylin and eosin staining based histopathological analysis; format: tissue-based; details: in vivo, 2000 mg/kg
Mus musculus [23] = assay: Anti-myocardial remodeling function in isoproterenol-induced C57BL/6 mouse model assessed as decrease in cardiac hypertrophy ANP protein at 20 mg/kg by one-time gavage for 21 days relative to control; format: functional; design: scale not given: the % may be the effect or the level left; details: time 21 day
[24] = Cytotoxicity against neonatal rat cardiac fibroblast assessed as cell survival rate at 10 uM measured after 48 hrs by MTT assay relative to control; format: toxicity, cell-based, Fibroblast of cardiac tissue; details: neonatal rat cardiac fibroblasts, read-out: Activity
[25] = Cytotoxicity against neonatal rat Cardiomyocytes assessed as cell survival rate at 10 uM measured after 48 hrs by MTT assay; format: toxicity, cell-based, Cardiac muscle cell; details: read-out: Activity
Mus musculus [26] = assay: Anti-myocardial remodeling function in isoproterenol-induced C57BL/6 mouse model assessed as decrease in heart weight to […] ratio at 20 mg/kg by one-time gavage for 21 days; format: functional; details: time 21 day
Mus musculus [27] = assay: Anti-myocardial remodeling function in isoproterenol-induced C57BL/6 mouse model assessed as decrease in heart weight to body weight ratio at 50 mg/kg by one-time gavage for 21 days; format: functional; details: time 21 day
[28] = test system: Fibroblast of cardiac tissue; assay: Reversal of Ang II-induced decrease in H3K4me3 level in neonatal rat cardiac fibroblasts by Western blot analysis; format: functional, cell-based
[29] = Acute toxicity in C57BL/6 mouse assessed as body weight at 2 g/Kg by one-time gavage measured after 2 weeks; details: in vivo, po, 2000 mg/kg, 336 h
Mus musculus [30] = assay: Anti-myocardial remodeling function in isoproterenol-induced C57BL/6 mouse heart injury model assessed as reversal of pathological damage at 20 to 50 mg/kg by one-time gavage for 21 days by Masson staining and Sirius Red staining based analysis; format: functional, organism-based; details: dose 20-50 mg/kg, time 21.0 day
[31] = Half life in Sprague-Dawley rat at 10 mg/kg, po measured upto 24 hrs; format: ADME, organism-based; details: in vivo
Mus musculus [32] = assay: Anti-myocardial remodeling function in isoproterenol-induced C57BL/6 mouse model assessed as increase in shortening fraction at 50 mg/kg by one-time gavage for 21 days; format: functional; details: time 21 day
[33] = Cmax in Sprague-Dawley rat at 10 mg/kg, po measured upto 24 hrs; format: ADME, organism-based; design: dose 10 mg/kg, time < 24 hrs, route po; details: in vivo
Mus musculus [34] = assay: Anti-myocardial remodeling function in isoproterenol-induced C57BL/6 mouse model assessed as increase in shortening fraction at 20 mg/kg by one-time gavage for 21 days; format: functional; details: time 21 day
[35] = Tmax in Sprague-Dawley rat at 10 mg/kg, po measured upto 24 hrs; format: ADME, organism-based; details: in vivo
[36] = AUC in Sprague-Dawley rat at 2 mg/kg, iv measured upto 24 hrs; format: ADME, organism-based; design: dose 2 mg/kg, time < 24 hrs, route iv; details: in vivo
Mus musculus [37] = assay: Anti-myocardial remodeling function in isoproterenol-induced C57BL/6 mouse model assessed as decrease in heart weight to body weight ratio at 20 mg/kg by one-time gavage for 21 days; format: functional; details: time 21 day
[38] = test system: Fibroblast of cardiac tissue; assay: Reversal of Ang II-induced increase in […] level in neonatal rat cardiac fibroblasts by Western blot analysis; format: functional, cell-based
[39] = Volume of distribution at steady state in Sprague-Dawley rat at 2 mg/kg, iv measured upto 24 hrs; format: ADME, organism-based; details: in vivo, read-out: Vdss
[40] = Oral bioavailability in Sprague-Dawley rat at 10 mg/kg measured upto 24 hrs; format: ADME, organism-based; details: in vivo
[41] = target: Lysine-specific demethylase 5C (Homo sapiens, UniProt P41229); assay: Inhibition of KDM5C (unknown origin) incubated for 30 mins by HRTF assay
[42] = Cmax in Sprague-Dawley rat at 2 mg/kg, iv measured upto 24 hrs; format: ADME, organism-based; design: time < 24 hrs, dose 2 mg/kg, route iv; details: in vivo
[43] = test system: Fibroblast of cardiac tissue; assay: Reversal of Ang II-induced decrease in H3K4me3 level in neonatal rat cardiac fibroblasts by immunofluorescence staining assay; format: functional, cell-based
[44] = Acute toxicity in C57BL/6 mouse assessed as survival at 2 g/Kg by one-time gavage measured after 2 weeks; details: in vivo, po, 2000 mg/kg, 336 h
[45] = target: T1, Lysine-specific demethylase 5B; assay: Inhibition of KDM5B (unknown origin) at 10 uM incubated for 30 mins by HRTF assay relative to control
Mus musculus [46] = assay: Anti-myocardial remodeling function in isoproterenol-induced C57BL/6 mouse model assessed as increase in ejection fraction at 50 mg/kg by one-time gavage for 21 days; format: functional; details: time 21 day

T1 sequence (Q9UGL1 whole entry): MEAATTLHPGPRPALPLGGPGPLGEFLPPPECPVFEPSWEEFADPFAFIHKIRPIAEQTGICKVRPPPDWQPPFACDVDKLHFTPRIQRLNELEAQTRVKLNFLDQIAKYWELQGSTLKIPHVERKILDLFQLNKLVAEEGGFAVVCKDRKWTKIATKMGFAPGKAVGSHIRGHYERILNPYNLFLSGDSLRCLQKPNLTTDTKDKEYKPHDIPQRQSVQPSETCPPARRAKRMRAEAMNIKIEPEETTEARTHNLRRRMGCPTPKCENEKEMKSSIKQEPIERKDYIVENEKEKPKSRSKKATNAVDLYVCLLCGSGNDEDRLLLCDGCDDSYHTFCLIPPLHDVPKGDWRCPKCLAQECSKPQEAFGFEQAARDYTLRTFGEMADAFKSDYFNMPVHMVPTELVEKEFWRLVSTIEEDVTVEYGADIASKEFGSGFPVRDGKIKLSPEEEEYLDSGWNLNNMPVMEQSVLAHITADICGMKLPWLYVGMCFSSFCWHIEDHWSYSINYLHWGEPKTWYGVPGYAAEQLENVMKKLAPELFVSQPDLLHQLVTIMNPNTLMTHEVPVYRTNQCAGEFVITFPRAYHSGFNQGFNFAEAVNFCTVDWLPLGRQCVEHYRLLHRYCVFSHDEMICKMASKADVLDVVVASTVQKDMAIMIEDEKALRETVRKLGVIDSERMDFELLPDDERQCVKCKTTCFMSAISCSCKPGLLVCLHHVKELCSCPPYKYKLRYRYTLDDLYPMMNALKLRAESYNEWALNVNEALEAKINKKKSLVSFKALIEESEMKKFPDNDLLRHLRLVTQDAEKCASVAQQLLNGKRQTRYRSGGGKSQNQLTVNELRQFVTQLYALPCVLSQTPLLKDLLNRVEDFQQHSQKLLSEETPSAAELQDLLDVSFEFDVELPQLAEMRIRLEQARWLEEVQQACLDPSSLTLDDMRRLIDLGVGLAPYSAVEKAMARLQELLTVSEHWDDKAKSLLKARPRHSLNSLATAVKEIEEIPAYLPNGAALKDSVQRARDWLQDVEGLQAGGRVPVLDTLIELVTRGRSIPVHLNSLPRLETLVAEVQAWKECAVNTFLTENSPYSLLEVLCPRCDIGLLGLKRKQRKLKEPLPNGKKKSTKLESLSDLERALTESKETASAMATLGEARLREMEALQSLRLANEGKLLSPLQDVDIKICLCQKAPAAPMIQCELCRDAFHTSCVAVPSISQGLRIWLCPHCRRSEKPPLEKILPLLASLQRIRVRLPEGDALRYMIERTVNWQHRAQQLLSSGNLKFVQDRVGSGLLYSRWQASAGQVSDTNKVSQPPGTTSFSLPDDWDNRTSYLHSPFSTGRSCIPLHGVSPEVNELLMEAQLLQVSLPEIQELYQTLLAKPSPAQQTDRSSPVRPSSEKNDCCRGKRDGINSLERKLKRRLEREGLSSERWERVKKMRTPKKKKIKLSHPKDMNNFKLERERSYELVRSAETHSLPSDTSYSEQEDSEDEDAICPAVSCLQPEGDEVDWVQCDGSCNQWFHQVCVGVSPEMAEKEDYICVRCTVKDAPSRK
Lysine-specific demethylase 5C, sequence (P41229 whole entry): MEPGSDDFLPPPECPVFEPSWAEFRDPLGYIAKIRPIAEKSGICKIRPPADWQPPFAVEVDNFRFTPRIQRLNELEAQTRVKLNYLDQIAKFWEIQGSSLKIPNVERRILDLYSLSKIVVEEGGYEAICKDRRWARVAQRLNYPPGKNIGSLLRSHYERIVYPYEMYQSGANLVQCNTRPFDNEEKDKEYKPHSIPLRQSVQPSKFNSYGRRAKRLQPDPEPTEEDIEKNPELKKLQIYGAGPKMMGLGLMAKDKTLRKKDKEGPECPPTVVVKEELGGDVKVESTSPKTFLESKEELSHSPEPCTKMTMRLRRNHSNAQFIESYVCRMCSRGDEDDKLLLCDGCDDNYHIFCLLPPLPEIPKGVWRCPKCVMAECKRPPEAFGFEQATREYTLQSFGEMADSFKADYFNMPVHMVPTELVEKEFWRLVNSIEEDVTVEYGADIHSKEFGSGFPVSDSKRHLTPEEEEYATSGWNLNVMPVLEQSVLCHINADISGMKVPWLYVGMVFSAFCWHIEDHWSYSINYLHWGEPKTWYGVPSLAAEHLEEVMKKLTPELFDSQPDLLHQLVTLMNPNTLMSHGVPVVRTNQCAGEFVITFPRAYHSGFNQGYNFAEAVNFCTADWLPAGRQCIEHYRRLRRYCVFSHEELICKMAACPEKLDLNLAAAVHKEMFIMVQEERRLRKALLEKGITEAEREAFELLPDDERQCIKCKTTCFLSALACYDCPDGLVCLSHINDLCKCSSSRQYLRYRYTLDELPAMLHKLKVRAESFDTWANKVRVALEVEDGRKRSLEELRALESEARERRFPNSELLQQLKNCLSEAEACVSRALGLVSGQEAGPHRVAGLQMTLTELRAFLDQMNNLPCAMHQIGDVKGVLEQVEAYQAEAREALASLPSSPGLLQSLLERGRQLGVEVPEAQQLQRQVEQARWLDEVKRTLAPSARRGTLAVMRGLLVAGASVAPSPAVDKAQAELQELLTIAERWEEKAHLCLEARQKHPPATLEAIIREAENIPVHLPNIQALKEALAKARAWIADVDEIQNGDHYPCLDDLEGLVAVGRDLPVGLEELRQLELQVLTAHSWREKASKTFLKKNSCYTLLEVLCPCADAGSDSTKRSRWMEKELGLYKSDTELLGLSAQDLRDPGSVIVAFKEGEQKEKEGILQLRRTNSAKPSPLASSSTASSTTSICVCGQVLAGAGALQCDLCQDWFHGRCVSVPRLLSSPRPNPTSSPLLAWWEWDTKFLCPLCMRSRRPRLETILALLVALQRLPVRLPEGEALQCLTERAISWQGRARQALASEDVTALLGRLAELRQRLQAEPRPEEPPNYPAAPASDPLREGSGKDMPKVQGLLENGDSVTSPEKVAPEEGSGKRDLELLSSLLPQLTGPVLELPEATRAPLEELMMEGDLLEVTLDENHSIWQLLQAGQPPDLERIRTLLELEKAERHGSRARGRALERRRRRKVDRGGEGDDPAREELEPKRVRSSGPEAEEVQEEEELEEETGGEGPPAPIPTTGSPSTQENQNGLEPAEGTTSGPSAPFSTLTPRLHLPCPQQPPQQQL
Lysine-specific demethylase 5A, sequence (P29375 whole entry): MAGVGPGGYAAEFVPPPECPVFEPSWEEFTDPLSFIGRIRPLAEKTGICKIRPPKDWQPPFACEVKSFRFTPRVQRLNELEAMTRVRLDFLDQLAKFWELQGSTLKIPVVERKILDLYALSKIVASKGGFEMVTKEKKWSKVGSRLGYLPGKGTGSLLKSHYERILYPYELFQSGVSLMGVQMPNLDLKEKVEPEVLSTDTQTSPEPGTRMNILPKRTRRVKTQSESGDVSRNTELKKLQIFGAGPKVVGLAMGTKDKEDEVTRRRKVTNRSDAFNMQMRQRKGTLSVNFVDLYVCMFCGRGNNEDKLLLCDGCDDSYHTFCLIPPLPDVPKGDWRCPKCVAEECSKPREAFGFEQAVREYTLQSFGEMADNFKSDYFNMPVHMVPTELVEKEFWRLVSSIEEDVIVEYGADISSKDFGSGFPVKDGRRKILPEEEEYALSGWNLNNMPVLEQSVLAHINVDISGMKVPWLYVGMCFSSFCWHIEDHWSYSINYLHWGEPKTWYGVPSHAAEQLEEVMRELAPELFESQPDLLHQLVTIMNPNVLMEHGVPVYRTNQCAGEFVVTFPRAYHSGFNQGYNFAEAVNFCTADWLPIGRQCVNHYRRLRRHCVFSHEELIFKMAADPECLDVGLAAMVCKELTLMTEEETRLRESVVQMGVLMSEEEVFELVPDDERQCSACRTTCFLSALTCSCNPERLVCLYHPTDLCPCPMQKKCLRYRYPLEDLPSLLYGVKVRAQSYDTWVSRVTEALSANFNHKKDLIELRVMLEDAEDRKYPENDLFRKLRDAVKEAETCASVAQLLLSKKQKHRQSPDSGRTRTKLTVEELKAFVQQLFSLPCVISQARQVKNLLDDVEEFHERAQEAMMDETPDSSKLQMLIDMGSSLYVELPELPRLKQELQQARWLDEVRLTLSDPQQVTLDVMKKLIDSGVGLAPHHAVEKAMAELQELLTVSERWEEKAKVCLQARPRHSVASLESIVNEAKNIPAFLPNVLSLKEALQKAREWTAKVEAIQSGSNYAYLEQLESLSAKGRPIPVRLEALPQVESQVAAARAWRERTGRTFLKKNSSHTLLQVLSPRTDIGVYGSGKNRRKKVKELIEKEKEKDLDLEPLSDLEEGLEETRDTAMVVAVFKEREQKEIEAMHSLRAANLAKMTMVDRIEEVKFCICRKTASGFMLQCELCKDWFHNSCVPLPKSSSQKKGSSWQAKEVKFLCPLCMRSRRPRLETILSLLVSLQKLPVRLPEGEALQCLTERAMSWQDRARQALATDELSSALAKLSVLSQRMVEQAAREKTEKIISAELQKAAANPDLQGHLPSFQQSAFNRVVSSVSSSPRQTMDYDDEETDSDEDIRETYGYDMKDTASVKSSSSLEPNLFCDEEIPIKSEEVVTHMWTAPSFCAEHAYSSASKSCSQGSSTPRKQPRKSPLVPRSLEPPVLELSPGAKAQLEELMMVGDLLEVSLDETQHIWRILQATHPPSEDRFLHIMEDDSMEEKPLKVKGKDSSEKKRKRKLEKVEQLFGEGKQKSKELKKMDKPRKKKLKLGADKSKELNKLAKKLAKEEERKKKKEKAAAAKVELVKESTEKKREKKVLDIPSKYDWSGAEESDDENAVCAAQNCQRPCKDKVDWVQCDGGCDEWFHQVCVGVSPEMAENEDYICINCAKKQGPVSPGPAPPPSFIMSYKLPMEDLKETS

**Q.** Which results are given for `CC(C)c1cc(C(=O)N2CC[C@@H](NC(=O)NC3CC3)C2)n[nH]1`?
**A.** CL/F [1]: 165 mL/min/kg; Activity (Mus musculus [2]): 71%; Activity [3]: Non-Toxic; Ratio [4]: 0.6; Activity [5]: Non-Toxic; Activity (Mus musculus [6]): 75%; clearance [7]: 70 mL/min/kg; Activity [8]: Non-Toxic; pIC50 [9]: 7.36; AUC at 24 h [10]: 1040 ng·h/mL; Activity [11]: Non-Toxic; Activity (Mus musculus [12]): 77%; Activity [13]: Active; Activity [14]: Active; Ratio (Mus musculus [15]): 0.89; Ratio [16]: 0.77; Activity (Mus musculus [17]): 54%; pIC50 [18]: 7.10; Activity [19]: Active; half-life [20]: 24 min; Vdss [21]: 33.4 L/kg; Activity [22]: Non-Toxic; Activity (Mus musculus [23]): 85%; viability at 48 h, 10 µM [24]: 90%; viability at 48 h, 10 µM [25]: 90%; Ratio (Mus musculus [26]): 0.93; Ratio (Mus musculus [27]): 0.89; Activity [28]: Active; Activity [29]: Non-Toxic; Activity (Mus musculus [30]): Active; half-life [31]: 144 min; Activity (Mus musculus [32]): 50%; Cmax [33]: 710 ng/mL; Activity (Mus musculus [34]): 44%; Tmax [35]: 24 min; AUC at 24 h [36]: 480 ng·h/mL; Ratio (Mus musculus [37]): 0.93; Activity [38]: Active; Vd [39]: 2.7 L/kg; bioavailability [40]: 42.4%; pIC50 [41]: 6.45; Cmax [42]: 1230 ng/mL; Activity [43]: Active; Activity [44]: Non-Toxic; inhibition [45]: 100%; Activity (Mus musculus [46]): 83%
